Assay: xn = mol fraction of the nth substance listed
Settings: 101 kPa, Liquid, Alternating current cell with electrodes

CNC(C)=O [N-methylacetamide] + CC(=O)N(C)C
electrical conductivity [S/m]
Settings	303.15 K	313.15 K	323.15 K	333.15 K	343.15 K	353.15 K	363.15 K	373.15 K	383.15 K	393.15 K
x1 = 0.1041	0.0107	0.0131	0.0151	0.0175	0.0202	0.0234	0.0269	0.0305	0.0344	0.0396
x1 = 0.2077	0.0173	0.0201	0.023	0.0261	0.0299	0.0349	0.0413	0.049	0.0567	0.0641
x1 = 0.3056	0.0162	0.0192	0.0229	0.0273	0.0331	0.0403	0.0495	0.06	0.0708	0.081
x1 = 0.4019	0.0203	0.0241	0.0285	0.0335	0.0394	0.0464	0.0548	0.0646	0.075	0.0851
x1 = 0.506	0.0239	0.0287	0.034	0.0397	0.0459	0.0532	0.0619	0.0714	0.0813	0.0907
x1 = 0.6088	0.0215	0.0262	0.0315	0.0373	0.0436	0.051	0.0597	0.0702	0.0816	0.0934
x1 = 0.6985	0.0328	0.04	0.0485	0.0584	0.0688	0.0798	0.0922	0.106	0.119	0.131
x1 = 0.7974	0.0314	0.039	0.0477	0.0571	0.0666	0.076	0.0854	0.0948	0.105	0.118
x1 = 0.9001	0.0329	0.0421	0.0528	0.0645	0.0778	0.0929	0.11	0.127	0.146	0.167
x1 = 1	0.0324	0.0447	0.0614	0.0775	0.105	0.129	0.165	0.192	0.219	0.247
